In patent US20260194528A1, “PROXIMITY-BASED LABELING OF BIOMOLECULAR CONDENSATE MICROENVIRONMENTS” (THE TRUSTEES OF PRINCETON UNIVERSITY, priority 2022, published 2026):

Assays:
Assay type in all cases: cell-based
[1] = system: HECT E3 ligase; assay: effect of HECT E3 ligase inhibition or knockdown on stress granule disassembly; settings: HECT E3 ligase inhibition or siRNA knockdown; FIG. 10, FIG. 11
From the text: With this information provided by the interactome mapping, E3 ligase inhibitor Heclin was employed to determine any effects on HECT E3 ligase function relative to stress granule disassembly, as illustrated in FIG. 9.

[2] = system: stress granules; assay: stress granule disassembly after NaAsO2 stress; settings: HEK243T stably expressing HaloTag-G3BP1; 2 μM TAK243; stressed with 500 mM NaAsO2 for 30 minutes; FIG. 6
Protocol: (§1) A protein-transition metal complex composite of FIG. 2 was prepared as follows. Cells (HEK243T stably expressing HaloTag-G3BP1) were seeded and grown to 95% confluency prior to labeling. The cells were incubated in DMEM media containing 5 μM of the with iridium catalyst of FIG. 2 for one hour. During this period, the iridium catalyst passes through the cell membranes and conjugates with the HaloTag-G3BP1 protein. The cells were then incubated in fresh DMEM media for one hour to remove or minimize noise from any unbound iridium catalyst.
(§2) A first portion of the Ir-catalyst loaded cells were subsequently transferred to DMEM media pre-dosed with 2 μM TAK243 and incubated for another hour. The remaining second portion (control) was dosed with the same volume of DMSO. The cells were stressed with […] NaAsO2 in DMEM for 30 minutes. Following stressing, the media was replaced with fresh DMEM for cell recovery at the indicated time. During the stressing period, the cells were dosed with protein labeling agent of 500 μM biotin-diazirine in the media 30 minutes prior to the individual time point of photolabeling. During photolabeling, the cells were subjected to 10 minutes of 450 nm blue light irradiation. FIG. 4 illustrates the foregoing testing protocol.

[3] = system: stress granule proteins; assay: ubiquitination of stress granule proteins during granule formation; settings: HEK243T stably expressing HaloTag-G3BP1, 2 μM TAK243, FIG. 6
Protocol: as §1, §2
General proteomics preparation protocol was followed. 600 μg of total protein was loaded for streptavidin enrichment. […]

SMILES | stress granule disassembly [1] | granule disassembly [2] | protein ubiquitination [3]
CCc1ccc(C=CC(=O)Nc2ccc(C(C)=O)cc2)o1 [Heclin] | delays stress granule disassembly | – | –
NS(=O)(=O)OC[C@H]1C[C@@H](Nc2ccnc3cc(-c4cccc(SC(F)(F)F)c4)nn23)[C@H](O)[C@@H]1O [TAK243] | – | delayed | undermined or inhibited
